Laboratory results taken from patent publication US20160212997A1, “AGRICULTURAL CHEMICALS” (REDAG CROP PROTECTION LTD, priority 2013, published 2016).
Read-outs that look alike come from different tables or passages of the source.

Assays:
[1] = tested on: caterpillars, a mixture of Mamestra brassicae and Lacanobia oleracea; assay: Potter tower spray on caterpillars, knockdown and mortality; assay type: in vivo; details: for pest or weed control at 0.000125 % strength / pest or weed control at 0.00025 % strength / pest or weed control at 0.0005 % strength / pest or weed control at 0.001 % strength / pest or weed control at 0.002 % strength: read-out: Average of % corrected affected
Source text: (§1) Myzus persicae, Cabbage moth, Mamestra brassicae, diamond back moths, Plutella xylostella, red spider mites, Tetranychus urticae, whitefly, Trialeurodes vaporariorum, were obtained from specified laboratory cultures. Mixed sex and age aphids and mites, moth larvae and whitefly scale infested leaves were used in the experiments. Environmental conditions were closely monitored and recorded and were within the optimal range of the target species.
(§2) The compounds were screened at a range of five concentrations, diluted in DMSO. Some of the compounds were screened against aphids, whitefly and red spider mites and other compounds were screened against cabbage moth, and diamond black moths. A carrier only and an untreated control will also be conducted. Treatments were applied directly onto the insects within Petri dishes, using a potter tower.
(§3) Twenty mites and ten aphids, scales and moth larvae were placed within a Petri dish, lined with a suitable leaf disc on a damp cotton wool pad. Scales were already on leaves. The Petri dishes were then sprayed using a potter tower. The number of knocked down and anthropods were assessed at 24 and 48 hours post treatment. Five replicates were be performed for each treatment, for each species.
(§4) For Tables 2, 4, 5 and 6, the compounds were diluted in DMSO containing 1% v/v Tween 20™. For Tables 2, 4, 5 and 6, the caterpillars were a mixture of Mamestra brassicae and Lacanobia oleracea.

aphids, Myzus persicae = assay: Potter tower spray on aphids, knockdown and mortality; assay type: in vivo; details: for pest or weed control at 0.000125 % strength / pest or weed control at 0.00025 % strength / pest or weed control at 0.0005 % strength / pest or weed control at 0.001 % strength / pest or weed control at 0.002 % strength: Myzus persicae, read-out: Average of % corrected affected
Source text: The compounds were screened for insecticidal efficacy against aphids, Myzus persicae, Cabbage moth, Mamestra brassicae, diamond black moths, Plutella xylostella, red spider mites, Tetranychus urticae, whitefly, Trialeurodes vaporariorum, in terms of knockdown and mortality.
as §1, §2, §3, §4

Row | Structure (SMILES) | pest or weed control at 0.000125 % strength ([1]; 24 h) | pest or weed control at 0.00025 % strength ([1]; 24 h) | pest or weed control at 0.0005 % strength ([1]; 24 h) | pest or weed control at 0.001 % strength ([1]; 24 h) | pest or weed control at 0.002 % strength ([1]; 24 h) | pest or weed control at 0.000125 % strength ([1]; 48 h) | pest or weed control at 0.00025 % strength ([1]; 48 h) | pest or weed control at 0.0005 % strength ([1]; 48 h) | pest or weed control at 0.001 % strength ([1]; 48 h) | pest or weed control at 0.002 % strength ([1]; 48 h) | pest or weed control at 0.000125 % strength (aphids, Myzus persicae; 24 h) | pest or weed control at 0.00025 % strength (aphids, Myzus persicae; 24 h) | pest or weed control at 0.0005 % strength (aphids, Myzus persicae; 24 h) | pest or weed control at 0.001 % strength (aphids, Myzus persicae; 24 h) | pest or weed control at 0.002 % strength (aphids, Myzus persicae; 24 h) | pest or weed control at 0.000125 % strength (aphids, Myzus persicae; 48 h) | pest or weed control at 0.00025 % strength (aphids, Myzus persicae; 48 h) | pest or weed control at 0.0005 % strength (aphids, Myzus persicae; 48 h) | pest or weed control at 0.001 % strength (aphids, Myzus persicae; 48 h) | pest or weed control at 0.002 % strength (aphids, Myzus persicae; 48 h) | other results
1 | Cc1cc(C2=NOC(c3cc(Cl)cc(Cl)c3)(C(F)(F)F)C2)sc1SCC(=O)NCC(F)(F)F (stereo not drawn) [Compound 20, 2-[[5-[5-(3,5-dichlorophenyl)-5-(trifluoromethyl)-4H-isoxazol-3-yl]-3-methyl-2-thienyl]sulfanyl]-N-(2,2,2-trifluoroethyl)acetamide] | 1 to 19% | 1 to 19% | 1 to 19% | 1 to 19% | 20 to 39% | 1 to 19% | 1 to 19% | 1 to 19% | 1 to 19% | 20 to 39% | 1 to 19% | 1 to 19% | 1 to 19% | 1 to 19% | 1 to 19% | 1 to 19% | 1 to 19% | 1 to 19% | 1 to 19% | 20 to 39% | control over caterpillars compared with reference compound 15 ([1]; 0.002% concentration): more control; control over aphids compared with reference compound 15 (aphids, Myzus persicae; 0.002% concentration): more control
2 | Cc1cc(C2=NOC(c3cc(Cl)cc(Cl)c3)(C(F)(F)F)C2)ccc1SC1CCNC1=O (stereo not drawn) [Compound 21, 3-[4-[5-(3,5-dichlorophenyl)-5-(trifluoromethyl)-4H-isoxazol-3-yl]-2-methyl-phenyl]sulfanylpyrrolidin-2-one] | 1 to 19% | 1 to 19% | 0% | 1 to 19% | 1 to 19% | 1 to 19% | 1 to 19% | 1 to 19% | 1 to 19% | 1 to 19% | 20 to 39% | 1 to 19% | 1 to 19% | 1 to 19% | 1 to 19% | 20 to 39% | 1 to 19% | 1 to 19% | 1 to 19% | 20 to 39% | –
